Experimental findings from PubChem BioAssay AID250 (DTP/NCI, 2004) are described below.

For the assay, the system named is BDF1 mice, L1210 leukemia sc, survival T/C. As to the kind of experiment: NCI In Vivo Anticancer Drug Screen. Data for tumor model L1210 Leukemia (subcutaneous) in B6D2F1 (BDF1) mice. As to conditions: endpoint: median survival time, higher = longer survival. In short, it runs like this: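 Transplantable tumor-bearing mice; survival or tumor size recorded; result = T/C, treated vs vehicle control.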

[1] abbreviates: dose: 65.0 mg/kg/injection, schedule: Q01DX Z (sc), vehicle: methylcellulose (MC).
Where [2] appears, read: dose: 108.0 mg/kg/injection, schedule: Q01DX Z (sc), vehicle: methylcellulose (MC).
Setting [3] is: dose: 180.0 mg/kg/injection, schedule: Q01DX Z (sc), vehicle: methylcellulose (MC).
Where [4] appears, read: dose: 300.0 mg/kg/injection, schedule: Q01DX Z (sc), vehicle: methylcellulose (MC).
Where [5] appears, read: dose: 23.0 mg/kg/injection, schedule: Q01DX Z (sc), vehicle: saline.
Setting [6] is: dose: 65.0 mg/kg/injection, schedule: Q01DX Z (sc), vehicle: saline.
Where [7] appears, read: dose: 8.4 mg/kg/injection, schedule: Q01DX Z (sc), vehicle: water.
The mark [8] stands for this setting: dose: 14.0 mg/kg/injection, schedule: Q01DX Z (sc), vehicle: water.
[9] abbreviates: dose: 500.0 mg/kg/injection, schedule: Q01DX Z (sc), vehicle: methylcellulose (MC).
Where [10] appears, read: dose: 14.0 mg/kg/injection, schedule: Q01DX Z (sc), vehicle: saline.
[11] abbreviates: dose: 39.0 mg/kg/injection, schedule: Q01DX Z (sc), vehicle: saline.
Setting [12] is: dose: 108.0 mg/kg/injection, schedule: Q01DX Z (sc), vehicle: saline.

Where “and” joins values, the source holds several entries; their conditions need not be identical. Equal entries are not always repeated. Toxic doses and inconclusive results are not listed.

Take `O=NN(CCCl)C(=O)N[C@H]1CCCC[C@@H]1Cl`: the T/C runs as follows: (dose: 3.0 mg/kg/injection, schedule: Q01DX Z (sc), vehicle: carboxymethylcellulose (CMC)) 111 % of control; (dose: 5.0 mg/kg/injection, schedule: Q01DX Z (sc), vehicle: carboxymethylcellulose (CMC)) 111 % of control; (dose: 8.4 mg/kg/injection, schedule: Q01DX Z (sc), vehicle: carboxymethylcellulose (CMC)) 211 % of control; (dose: 11.3 mg/kg/injection, schedule: Q01DX Z (sc), vehicle: carboxymethylcellulose (CMC)) 668 % of control; (dose: 14.0 mg/kg/injection, schedule: Q01DX Z (sc), vehicle: carboxymethylcellulose (CMC)) 336 % of control and 472 % of control; (dose: 22.5 mg/kg/injection, schedule: Q01DX Z (sc), vehicle: carboxymethylcellulose (CMC)) 493 % of control. Moreover, the T/C reads like this: (dose: 23.0 mg/kg/injection, schedule: Q01DX Z (oral), vehicle: carboxymethylcellulose (CMC)) 326 % of control; (dose: 23.0 mg/kg/injection, schedule: Q01DX Z (sc), vehicle: carboxymethylcellulose (CMC)) 272 % of control and 336 % of control; (dose: 39.0 mg/kg/injection, schedule: Q01DX Z (oral), vehicle: carboxymethylcellulose (CMC)) 189 % of control; (dose: 39.0 mg/kg/injection, schedule: Q01DX Z (sc), vehicle: carboxymethylcellulose (CMC)) 278 % of control; (dose: 45.0 mg/kg/injection, schedule: Q01DX Z (sc), vehicle: carboxymethylcellulose (CMC)) 300 % of control; (dose: 65.0 mg/kg/injection, schedule: Q01DX Z (oral), vehicle: carboxymethylcellulose (CMC)) 163 % of control. The T/C was 194 % of control (dose: 65.0 mg/kg/injection, schedule: Q01DX Z (sc), vehicle: carboxymethylcellulose (CMC)); 150 % of control (dose: 90.0 mg/kg/injection, schedule: Q01DX Z (sc), vehicle: carboxymethylcellulose (CMC)); 115 % of control (dose: 180.0 mg/kg/injection, schedule: Q01DX Z (oral), vehicle: carboxymethylcellulose (CMC)); 105 % of control (dose: 300.0 mg/kg/injection, schedule: Q01DX Z (oral), vehicle: carboxymethylcellulose (CMC)).
In the case of `C[C@]12CCC(=O)C=C1CC[C@H]1[C@@H]3CC[C@](O)(C(=O)CO)[C@@]3(C)C[C@H](O)[C@@]12F`, the T/C reads like this: (dose: 39.0 mg/kg/injection, schedule: Q01DX Z (sc), vehicle: methylcellulose (MC)) 100 % of control; under setting [1], 100 % of control; under setting [2], 100 % of control; under setting [3], 100 % of control; under setting [4], 100 % of control and 118 % of control; (dose: 833.0 mg/kg/injection, schedule: Q01DX Z (sc), vehicle: methylcellulose (MC)) 112 % of control.
Turning to `CNNCc1ccc(C(=O)NC(C)C)cc1`, the T/C was 116 % of control and 122 % of control (dose: 65.0 mg/kg/injection, schedule: Q01DX009 (sc), vehicle: saline); 119 % of control and 122 % of control (dose: 65.0 mg/kg/injection, schedule: Q01DX014 (sc), vehicle: saline); 122 % of control (dose: 65.0 mg/kg/injection, schedule: Q01DX015 (sc), vehicle: saline); 111 % of control (dose: 108.0 mg/kg/injection, schedule: Q01DX014 (sc), vehicle: saline); 122 % of control and 123 % of control (dose: 108.0 mg/kg/injection, schedule: Q01DX015 (sc), vehicle: saline); 150 % of control (dose: 180.0 mg/kg/injection, schedule: Q01DX015 (sc), vehicle: saline). Further, the T/C was 163 % of control and 166 % of control (dose: 300.0 mg/kg/injection, schedule: Q01DX015 (sc), vehicle: saline); 122 % of control (dose: 500.0 mg/kg/injection, schedule: Q01DX014 (sc), vehicle: saline); 116 % of control and 117 % of control (dose: 500.0 mg/kg/injection, schedule: Q01DX015 (sc), vehicle: saline).
For the compound `CSc1ncnc2nc[nH]c12`, the T/C is, setting by setting: (dose: 38.9 mg/kg/injection, schedule: Q01DX Z (sc), vehicle: methylcellulose (MC)) 95 % of control; (dose: 64.8 mg/kg/injection, schedule: Q01DX Z (sc), vehicle: methylcellulose (MC)) 105 % of control; under setting [2], 110 % of control; under setting [3], 100 % of control.
Take `O=P(N1CCOCC1)(N1CC1)N1CC1`: the T/C runs as follows: (dose: 5.0 mg/kg/injection, schedule: Q01DX Z (sc), vehicle: saline) 96 % of control and 110 % of control; (dose: 8.4 mg/kg/injection, schedule: Q01DX Z (sc), vehicle: saline) 100 % of control and 110 % of control; under setting [5], 160 % of control and 164 % of control; under setting [6], 112 % of control.
`O=C(Nc1ccc(C2=NCCCN2)cc1)c1ccc(C(=O)Nc2ccc(C3=NCCCN3)cc2)nc1`: the T/C reads like this: (dose: 3.0 mg/kg/injection, schedule: Q01DX Z (sc), vehicle: water) 100 % of control; (dose: 5.0 mg/kg/injection, schedule: Q01DX Z (sc), vehicle: water) 100 % of control; under setting [7], 100 % of control; under setting [8], 88 % of control; (dose: 23.0 mg/kg/injection, schedule: Q01DX Z (sc), vehicle: water) 100 % of control.
Take `CN(C)[C@@H]1C(=O)C(C(=O)NCc2nc3[nH]cnc(=S)c3[nH]2)=C(O)[C@@]2(O)C(=O)C3=C(O)c4c(O)cccc4[C@@](C)(O)[C@H]3C[C@@H]12`: the T/C under setting [1] was 100 % of control; the T/C under setting [2] was 100 % of control; the T/C under setting [3] was 100 % of control; the T/C under setting [4] is 105 % of control; the T/C under setting [9] is 175 % of control.
For the compound `N[C@@H](Cc1ccc(N(CCCl)CCCl)cc1)C(=O)O`, the T/C runs as follows: (dose: 0.65 mg/kg/injection, schedule: Q01DX Z (sc), vehicle: water) 100 % of control; (dose: 1.09 mg/kg/injection, schedule: Q01DX Z (sc), vehicle: water) 100 % of control; (dose: 1.81 mg/kg/injection, schedule: Q01DX Z (sc), vehicle: water) 95 % of control; (dose: 3.02 mg/kg/injection, schedule: Q01DX Z (sc), vehicle: water) 100 % of control; (dose: 5.04 mg/kg/injection, schedule: Q01DX Z (sc), vehicle: water) 104 % of control; under setting [7], 100 % of control. Moreover, the T/C reads like this: under setting [10], 114 % of control; under setting [8], 109 % of control; under setting [5], 123 % of control; (dose: 23.3 mg/kg/injection, schedule: Q01DX Z (sc), vehicle: water) 109 % of control; (dose: 38.9 mg/kg/injection, schedule: Q01DX Z (sc), vehicle: water) 118 % of control; under setting [11], 104 % of control. Moreover, under setting [6], the T/C is 104 % of control.
As to `O=C(Nc1ccc(NC(=O)Nc2cccc(C3=NCCN3)c2)cc1)Nc1cccc(C2=NCCN2)c1`, the T/C is, setting by setting: under setting [5], 100 % of control; under setting [11], 110 % of control; under setting [6], 100 % of control; under setting [12], 95 % of control; (dose: 180.0 mg/kg/injection, schedule: Q01DX Z (sc), vehicle: saline) 100 % of control; (dose: 300.0 mg/kg/injection, schedule: Q01DX Z (sc), vehicle: saline) 100 % of control.
For `COc1cccc(/C=N/NC(N)=S)c1`, the T/C by setting is: (dose: 78.0 mg/kg/injection, schedule: Q01DX Z (sc), vehicle: water) 100 % of control; (dose: 130.0 mg/kg/injection, schedule: Q01DX Z (sc), vehicle: water) 105 % of control; (dose: 216.0 mg/kg/injection, schedule: Q01DX Z (sc), vehicle: water) 100 % of control.
Turning to `COC(=O)c1[nH]cnc1/N=N/N(C)C`, the T/C was 109 % of control under setting [10]; 100 % of control under setting [5]; 109 % of control under setting [11]; 104 % of control under setting [6]; 159 % of control under setting [12].
Turning to `C[C@]12CCC(=O)C=C1CC[C@@H]1[C@@H]2[C@@H](O)C[C@@]2(C)[C@H]1CC[C@]2(O)C(=O)CO`, the T/C runs as follows: under setting [1], 100 % of control; under setting [2], 100 % of control; under setting [3], 100 % of control; under setting [4], 100 % of control; under setting [9], 100 % of control.
